Molecules are shown by their SMILES. Counter-ions that a name gives are not always drawn.

The experiment deals with T1, IRE1α (Homo sapiens, UniProt O75460, D688N).
T1 construct: containing the kinase and RNase domains (KR, AA G547-L977, D688N); made in house; host or cells: Sf9 insect cells
T1 sequence (O75460 547-977 D688N): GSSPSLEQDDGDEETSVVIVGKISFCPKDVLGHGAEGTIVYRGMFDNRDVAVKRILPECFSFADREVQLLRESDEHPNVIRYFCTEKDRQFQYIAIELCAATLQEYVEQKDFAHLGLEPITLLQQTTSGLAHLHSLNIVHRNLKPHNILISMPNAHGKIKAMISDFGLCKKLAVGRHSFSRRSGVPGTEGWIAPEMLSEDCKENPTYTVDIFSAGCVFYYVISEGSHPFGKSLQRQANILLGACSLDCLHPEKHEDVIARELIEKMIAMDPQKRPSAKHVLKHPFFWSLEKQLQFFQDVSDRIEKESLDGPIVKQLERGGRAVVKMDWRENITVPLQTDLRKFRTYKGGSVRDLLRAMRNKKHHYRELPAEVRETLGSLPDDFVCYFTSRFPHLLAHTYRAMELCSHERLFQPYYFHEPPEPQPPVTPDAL
As to the kind of experiment: IRE1α TR-FRET competition binding assay (HTRF). The note with it: His-tagged IRE1α kinase dead construct (KR, AA G547-L977, D688N); Alexa fluor 647-labeled ATP competitive probe 2 nM; read-out: IRE1α (alpha) HTRF (IC50). How it is done:
To determine the affinity of compound binding to the kinase domain of IRE1α, a time-resolved fluorescence resonance energy transfer (TR-FRET) competition assay was used.
A His-tagged IRE1α kinase dead construct containing the kinase and RNase domains (KR, AA G547-L977, D688N) was expressed in Sf9 insect cells. The purified protein (final concentration 0.25 nM) was pre-incubated with anti-His Europium labeled antibody (Life Technologies PV5596, final concentration 2 nM) for one hour at 4° C. in TR-FRET Assay Buffer (50 mM HEPES, pH 7.5, 10 mM MgCl2, 0.083 mM Brij 35, 1 mM DTT, and 0.1% bovine gamma globulin) prior to addition to test compounds. An Alexa fluor 647-labeled probe based on an ATP competitive inhibitor was added to a final concentration of 2 nM. Reactions were carried out for one hour at room temperature in a final volume of 20 μL in 384 well white ProxiPlates (Perkin Elmer 6008289). Binding of the probe to the IRE1α protein was detected in an Envision instrument (PerkinElmer) equipped with a TRF laser option and a LANCE/Delfia Dual/Bias D400/D630 mirror (Ex 347 nm, 1st Em 665 nm, 2nd Em 615 nm).
A general note: In TR-FRET formats the signal depends on donor and acceptor labels being close together.
Usually IC50 stands for the concentration needed to halve the response being measured. For `Cc1cc(NS(=O)(=O)Cc2ccccc2)c(F)c(F)c1-c1ccc2nc(N[C@H]3CCCNC3)ncc2c1` [Compound 1009, (S)—N-(2,3-Difluoro-5-methyl-4-(2-(piperidin-3-ylamino)quinazolin-6-yl)phenyl)-1-phenylmethanesulfonamide], the IC50 was determined as 4.9 nM.
As for `O=S(=O)(Cc1ccccc1)Nc1cccc(-c2ccc3nc(N[C@H]4CCCNC4)ncc3c2)c1F` [Compound 1006, (S)—N-(2-Fluoro-3-(2-(piperidin-3-ylamino)quinazolin-6-yl)phenyl)-1-phenylmethanesulfonamide], the IC50 was determined as 100 nM.
The same measure for `CCc1cc(-c2ccc(NS(=O)(=O)Cc3ccccc3)c(F)c2)cc2cnc(N[C@@H]3CNC[C@@H](F)C3)nc12` [Compound 1017, N-(4-(8-Ethyl-2-(((3S,5S)-5-fluoropiperidin-3-yl)amino)quinazolin-6-yl)-2-fluorophenyl)-1-phenylmethanesulfonamide]: 0.18 nM; for `O=S(=O)(Cc1ccccc1)Nc1ccc(Cl)c(-c2ccc3nc(N[C@H]4CCCNC4)ncc3c2)c1F` [Compound 1008, (S)—N-(4-Chloro-2-fluoro-3-(2-(piperidin-3-ylamino)quinazolin-6-yl)phenyl)-1-phenylmethanesulfonamide]: 30 nM; for `O=S(=O)(Cc1ccccc1)Nc1ccc(-c2ccc3nc(N[C@H]4CCCNC4)ncc3c2F)c(F)c1F` [Compound 1012, (S)—N-(2,3-Difluoro-4-(5-fluoro-2-(piperidin-3-ylamino)quinazolin-6-yl)phenyl)-1-phenylmethanesulfonamide]: 15 nM.
The same measure for `O=S(=O)(Cc1ccccc1)Nc1c(F)cc(-c2ccc3nc(N[C@H]4CCCNC4)ncc3c2)c(F)c1F` [Compound 1003, (S)-1-Phenyl-N-(2,3,6-trifluoro-4-(2-(piperidin-3-ylamino)quinazolin-6-yl)phenyl)methanesulfonamide]: 0.65 nM; for `CCc1cc(-c2ccc(NS(=O)(=O)Cc3ccccc3)cc2F)cc2cnc(N[C@@H]3CNC[C@@H](F)C3)nc12` [Compound 1016, N-(4-(8-Ethyl-2-(((3S,5S)-5-fluoropiperidin-3-yl)amino)quinazolin-6-yl)-3-fluorophenyl)-1-phenylmethanesulfonamide Formate]: 0.46 nM.
The same measure for `CCC(F)(F)CS(=O)(=O)Nc1ccc(-c2ccc3nc(N[C@H]4CCCNC4)ncc3c2)c(F)c1F` [Compound 1007, (S)—N-(2,3-Difluoro-4-(2-(piperidin-3-ylamino)quinazolin-6-yl)phenyl)-2,2-difluorobutane-1-sulfonamide]: 2.9 nM.
Regarding `O=S(=O)(Cc1ccccc1)Nc1c(F)cc(-c2ccc3nc(N[C@H]4CCCNC4)ncc3c2)cc1F` [Compound 1011, (S)—N-(2,6-Difluoro-4-(2-(piperidin-3-ylamino)quinazolin-6-yl)phenyl)-1-phenylmethanesulfonamide], the IC50 came to 0.53 nM.
With `O=S(=O)(Cc1ccccc1)Nc1ccc(-c2cc3cnc(N[C@H]4CCCNC4)nc3cc2F)c(F)c1F` [Compound 1015, (S)—N-(2,3-Difluoro-4-(7-fluoro-2-(piperidin-3-ylamino)quinazolin-6-yl)phenyl)-1-phenylmethanesulfonamide], the IC50 is 3.1 nM.
In the case of `O=S(=O)(CCC(F)(F)F)Nc1ccc(-c2ccc3nc(N[C@H]4CCCNC4)ncc3c2)c(F)c1F` [Compound 1002, (S)—N-(2,3-Difluoro-4-(2-(piperidin-3-ylamino)quinazolin-6-yl)phenyl)-3,3,3-trifluoropropane-1-sulfonamide], the IC50 is 7.6 nM.
The same measure for `O=S(=O)(Cc1ccccc1)Nc1ccc(-c2ccc3nc(N[C@H]4CCCNC4)ncc3c2)cc1F` [Compound 1010, (S)—N-(2-Fluoro-4-(2-(piperidin-3-ylamino)quinazolin-6-yl)phenyl)-1-phenylmethanesulfonamide]: 11 nM.
As for `O=S(=O)(Cc1ccccc1)Nc1ccc(F)c(-c2ccc3nc(N[C@H]4CCCNC4)ncc3c2)c1F` [Compound 1004, (S)—N-(2,4-Difluoro-3-(2-(piperidin-3-ylamino)quinazolin-6-yl)phenyl)-1-phenylmethanesulfonamide], the figure is 150 nM; as for `O=S(=O)(Cc1ccccc1)Nc1c(F)cc(-c2ccc3nc(N[C@@H]4CNC[C@@H](F)C4)ncc3c2)cc1F` [Compound 1013, N-(2,6-Difluoro-4-(2-(((3S,5S)-5-fluoropiperidin-3-yl)amino)quinazolin-6-yl)phenyl)-1-phenylmethanesulfonamide], 0.51 nM; as for `O=S(=O)(Cc1ccccc1)Nc1cc(F)c(-c2ccc3nc(N[C@H]4CCCNC4)ncc3c2)c(F)c1F` [Compound 1014, (S)-1-Phenyl-N-(2,3,5-trifluoro-4-(2-(piperidin-3-ylamino)quinazolin-6-yl)phenyl)methanesulfonamide hydrochloride], 2.1 nM.
As for `CCc1cc(-c2ccc(NS(=O)(=O)CCC(F)(F)F)c(F)c2)cc2cnc(N[C@H]3CC[C@H](N(C)C)CC3)nc12` [Compound 1018, N-(4-(2-(((1,4-trans)-4-(Dimethylamino)cyclohexyl)amino)-8-ethylquinazolin-6-yl)-2-fluorophenyl)-3,3,3-trifluoropropane-1-sulfonamide], the figure is 0.25 nM; as for `O=S(=O)(Cc1ccccc1)Nc1ccc(F)c(-c2ccc3nc(N[C@H]4CCCNC4)ncc3c2)c1` [Compound 1005, (S)—N-(4-Fluoro-3-(2-(piperidin-3-ylamino)quinazolin-6-yl)phenyl)-1-phenylmethanesulfonamide], 79 nM.
Turning to `O=S(=O)(Cc1ccccc1)Nc1ccc(-c2ccc3nc(N[C@H]4CCCNC4)ncc3c2)c(F)c1F` [Compound 1001, (S)—N-(2,3-Difluoro-4-(2-(piperidin-3-ylamino)quinazolin-6-yl)phenyl)-1-phenylmethanesulfonamide], the IC50 came out at 0.57 nM.
